# Measured values reported in publication PMC7566913, “Dual Gene Delivery Reagents From Antiproliferative Alkylphospholipids for Combined Antitumor Therapy” (Frontiers in Chemistry, 2020).
# Several values for one entry are separate records, joined by “and”; a condition that tells them apart may be missing. Identical values can stand only once. Like-named read-outs stand apart in the source and are kept apart here.
# What was measured:
# [1] = Hydrolytic stability of the APL prodrugs monitored by 31P-NMR; format: physicochemical
# Excerpt: Aqueous formulation of the APL prodrugs produces nanosized lipid aggregates that most likely enter cells through the endocytosis pathway. To produce the expected intrinsic antineoplastic effect, APL-derived phosphotriesters need to be processed into the bioactive parent APLs. The hydrolysis of the prodrugs may be under the control of a chemical stimulus, e.g., a pH decrease as observed during the maturation of endosomes, or of degradation enzymes that massively enter the endosome compartment when continuing to lysosomes. To get some information on the transformation of pro-APLs into APLs, we monitored the hydrolysis of these compounds over time, at pH 7.4 and 4.5, conditions that mimick the extracellular milieu and the environment of the late endosome, respectively. This monitoring was realized using ^31P-NMR spectroscopy, according to a previously reported method (Pierrat et al., [2013b]). Whatever the compound investigated, only one single ^31P resonance did appear during the course of the experiments, corresponding to that of the parent APL. This confirmed that hydrolysis of the pro-APLs selectively occurred at the acetal center. […] As a general trend, hydrolysis of the pro-APLs was […] under neutral conditions (i.e., pH 7.4) than under acidic ones (i.e., pH 4.5). […] Besides, substitution of one hydrogen atom with a methyl group on the acetal bridge accelerated the rate of hydrolysis of the prodrugs. […] Indeed, in biological media, the enzyme-mediated hydrolysis of such compounds can proceed far quicker than “simple” chemical hydrolysis under pH control (Pierrat et al., [2012]). […]
# [2] = CMC/CAC by pyrene fluorescent probe technique in ultrapure water; format: physicochemical; conditions: pyrene fluorescence
# Method: The pro-APL molecules have been specifically engineered so they can be metabolized in situ under a biological stimulus to revert to the parent APL with antiproliferative activity. […] We thus aimed to determine the self-assembly properties of the APL prodrugs. […] Pyrene is a probe which fluorescence is sensitive to the polarity of the solubilizing medium. […] Fluorescence measurements were carried out in ultrapure water and data obtained for the various APLs and their prodrugs are shown in Table 2.
# Pro-APLs Self-Assembly Properties
# Starting from a lipid film, compounds were […]
# [3] = test system: A549 cells; assay: Cytotoxicity, MTT assay, A549; format: cell-based, human; conditions: A549, 24 h at 37°C
# Method: (§1) The cells were exposed for a 24-h period to increasing concentration of the pro-APLs, ranging from 500 nM to 1 mM, and cell viability was assessed using the MTT colorimetric assay (Mosmann, [1983]). For the three cell lines, viability decreased in a dose-dependent manner in response to APLs and pro-APLs (Supplementary Figures 2–4). Using the best-fit regression curve method, the IC50 value (concentration that provokes 50% inhibition of the cell growth) was calculated for each compound (Table 4). The three cell lines responded to the compounds with varying sensitivities. […] This is attributed to enzyme-mediated hydrolysis of the pro-APL compounds in the complemented culture medium or in the intracellular compartment, competing with pure pH-controlled chemical hydrolysis. According to its structure, a pro-APL may or not be a substrate for specific lipases and, thus, may or not be hydrolyzed into the parent cytotoxic compound. […]
# (§2) At confluency, cells were released […]
# (§3) Cells were seeded into 96-well plates (Becton-Dickinson) at the required density (vide supra) in 100 µL of serum containing culture medium. […]
# (§4) Mitochondrial activity measurements (MTT assay) was used to assess cytotoxicity of the compounds.
# (§5) Lipid samples were prepared from a lipid film (3.6 µmol of compound evaporated from an ethanolic solution) hydrated with aqueous glucose 5 % and vigorously vortexed for 20 s before serial dilution in aqueous glucose 5 %. For addition of lipid samples to cell culture, part of the culture medium in the culture plates prepared the day before (25 µL) was removed and replaced by lipid samples (25 µL). Negative control was obtained by adding glucose 5 % to the cells instead of lipoplexes.
# (§6) After a 24-h incubation period at 37 °C, culture supernatant was removed, cells were carefully washed with PBS and MTT (100 µL, 0.5 mg/mL) in complete culture medium was added. After a 1-h incubation period at 37 °C, the MTT sol ution was removed and DMSO (100 µL) was added to lyse cells and dissolve reduced MTT. Intensity of MTT reduction was then evaluated by measuring absorbance at 492 nm. Viability of cells treated with lipids or lipoplexes was expressed as the percentage of the absorbance measured in untreated cells. Value for each sample is the mean of triplicate determinations (± SD). IC50 values were determined within the 95 % confidence interval using nonlinear regression analysis with the GraphPad Prism software (GraphPad Software, San […]
# (§7) All data are representative of a triplicate determination and are presented as the mean ± SD.
# (§8) Statistical significance between treatments was assessed by one-way analysis of variance (ANOVA) followed by the Dunnett multiple comparison test, using the Kaleidagraph 4.5 software (Synergy Software, Reading, PA, USA). Data were considered as statistically significant for p value less than
# [4] = test system: H292 cells; assay: Cytotoxicity, MTT assay, H292; format: cell-based, human
# Method: as §1, §2, §3, §4, §5, §6, §7, §8
# [5] = test system: 16HBE cells; assay: Cytotoxicity, MTT assay, 16HBE; format: cell-based, human; conditions: 24 h at 37°C
# Method: as §1, §2, §3, §4, §5, §6, §7, §8
# [6] = Particle size and zeta potential of lipoplexes by DLS; format: physicochemical; conditions: lipoplexes with pCMV-Gluc, 25 °C, 5 % glucose, N/P 3, 1 molar equivalent of DOPE
# Excerpt: The capacity of the pro-APLs to interact electrostatically with nucleic acids and form lipoplexes was checked by standard agarose gel electrophoresis. […] The size (hydrodynamic diameter) and charge (zeta potential, ζ) of the lipoplexes prepared at an N/P ratio of 3 with one molar equivalent of dioleoyl-sn-glycero-3-phosphatidylethanolamine (DOPE), a lipid with fusogenic properties (Hui et al., [1996]; Zuhorn et al., [2005]), were investigated by DLS (Supplementary Table 1).
# as measured by DLS. Lipoplexes were prepared at 25 °C, in 5 % glucose, at a N/P ratio of 3 and with
# 1 molar equivalent of DOPE.
# (Gaillard et al., 2019). Data are the mean of three independent measurements (± SD).
# [7] = test system: A549 cells; assay: Gene transfer efficiency, pCMV-Gluc luciferase reporter gene assay; format: cell-based, human
# Excerpt: The efficacy of the pro-APLs to mediate intracellular delivery of a plasmid DNA was examined in A549 human lung epithelial carcinoma cells using the pCMV-Gluc reporter gene encoding the luciferase of Gaussia princeps. This luciferase is secreted by cells and transgene expression can be conveniently assessed by standard bioluminescence measurements on aliquots of the cell culture supernatant, without need for prior cell lysis. Lipoplexes were formulated in glucose 5% at N/P ratios of 1, 3, and 5, with increasing amounts of DOPE as a helper lipid. They were deposited onto cells in the presence of 10% serum and luciferase activity was measured after 24 h (Figure 3). […] The influence of the nature of the pendant hydrophobic arm was also examined.
# To investigate the effect of serum on the gene delivery properties of the APL prodrugs, cells were treated with lipoplexes in the presence of an increasing concentration of serum (Figure 5). Two DNA doses were considered.
# Figure 5 Transfection efficiency of pro-APLs ME12 (A), PE12 (B), and EE12 (C) as a function of serum content. Pro-APL/DNA complexes were prepared at N/P 3, with 1 molar eq. of DOPE. A549 cells (6,000 cells/well) were seeded into 96-well plates in 100 μL of culture medium containing 10% serum. Twenty-four hours later, cell supernatant was replaced with culture medium complemented with increasing amounts of serum (from 10 to 75%) just before adding the lipoplexes (0.2 and 0.4 μg of DNA per well; light and deep purple bars, resp.). Control (light blue bar) refers to basal bioluminescence measured in untreated cells. […] Statistical significance vs. control. ***p < 0.001, **p < 0.01, *p < 0.05.
# [8] = set-up: method as in Gaillard et al., 2019; conditions: ref Gaillard et al., 2019, cited from earlier work
# [9] = set-up: method as in Gaillard et al., 2019; conditions: pyrene fluorescence; ref Gaillard et al., 2019; cited from earlier work
# [10] = test system: A549 cells; set-up: method as in Gaillard et al., 2019; conditions: A549, 24 h at 37°C, MTT assay; ref Gaillard et al., 2019; cited from earlier work
# [11] = test system: H292 cells; set-up: method as in Gaillard et al., 2019; conditions: H292, 24 h at 37°C, MTT assay; ref Gaillard et al., 2019; cited from earlier work
# [12] = test system: 16HBE cells; set-up: method as in Gaillard et al., 2019; conditions: 24 h at 37°C, MTT assay, ref Gaillard et al., 2019; cited from earlier work
# [13] = set-up: method as in Gaillard et al., 2019; conditions: lipoplexes with pCMV-Gluc, N/P 3, 1 molar equivalent of DOPE; ref Gaillard et al., 2019; cited from earlier work
# [14] = test system: sheep RBC; conditions: sheep RBC, 37°C, ref Gaillard et al., 2019, cited from earlier work
# [15] = test system: sheep RBC; assay: Hemolytic activity, red blood cell leakage assay; conditions: 37°C
# Method: To evaluate this hypothesis, the hemolytic activity of the APLs and pro-APLs was measured. Sheep RBC were incubated for 1 h with escalating doses of aqueous dispersion of the compounds at 37°C. At the end of the incubation period, hemoglobin leakage was determined spectrophotometrically.
# Thus, in order to better characterize the hemolytic effect of the pro-APLs, the incubation period has been extended and release of hemoglobin was measured after 24 h.
# Red blood cell (RBC) leakage assay was carried out according to a previously described procedure
# (Evans et al, 2013). RBC were prepared from defibrinated sheep blood. Briefly, blood sample (5 mL) was centrifuged at 500 x g for 5 min. After removal of the yellow upper layer, an equal volume of
# [16] = set-up: method as in Yaseen et al., 2005; conditions: Du Noüy ring method; ref Yaseen et al., 2005; cited from earlier work
# [17] = Langmuir trough method, cited from earlier work
# [18] = test system: red blood cells (RBC); conditions: cited from earlier work
# [19] = Homo sapiens, NCI-H292, H292, 24 h at 37°C
Compound,CMC (APLs) / CAC (pro-APLs) [2] [µM],H120 (hydrolysis rate after a 120-h incubation period) ([8]; pH 4.5) [%],H120 (hydrolysis rate after a 120-h incubation period) ([8]; pH 7.4) [%],CMC (APLs) / CAC (pro-APLs) [9] [µM],IC50 [10] [µM],IC50 [11] [µM],IC50 [12] [µM],Particle size of lipoplexes [13],HA200 (hemolytic activity at 200 μM) ([14]; 1 h) [%],HA200 (hemolytic activity at 200 μM) ([14]; 24 h) [%],IC50 ([3]; Homo sapiens) [µM],"IC50 [4, 19] [µM]",IC50 ([5]; Homo sapiens) [µM],HA200 (hemolytic activity at 200 μM) ([15]; 1 h) [%],other results
"3-((((((Dodecyloxy)carbonyl)oxy)ethoxy)(hexadecyloxy)phosphoryl)oxy)-N,N,N-trimethylpropan-1-aminium chloride [M C^′12]",2.0 ± 0.7,,,,,,,,,,,,,,"H120 (hydrolysis rate after a 120-h incubation period) ([1]; pH 4.5): 13%; H120 (hydrolysis rate after a 120-h incubation period) ([1]; pH 7.4): 14%; IC50 [3]: 48 ± 15 µM; IC50 ([4]; H292, 24 h at 37°C): 146 ± 37 µM; IC50 [5]: 66 ± 27 µM; Particle size of lipoplexes [6]: 91 ± 3 nm; Transfection rate relative to MC12 ([7]; A549, pCMV-Gluc lipoplexes, 10% serum, 24 h): ca. 2 fold"
CCCCCCCC/C=C\CCCCCCCCCCCCOP(=O)(OCCC[N+](C)(C)C)OC(C)OC(=O)OCCCCCCCCCCCC (stereo not shown) [E C^′12],,5,6,0.9 ± 0.2,179 ± 63,161 ± 25,257 ± 81,92 ± 10 nm,< 1,7.3 ± 0.8,,,,,
CCCCCCCC/C=C\CCCCCCCCCCCCOP(=O)(OCCC[N+](C)(C)C)OC(C)OC(=O)CCCCCCCCCCC (stereo not shown) [E E^′12],,53,56,1.1 ± 0.7,192 ± 44,73 ± 15,63 ± 7,149 ± 15 nm,,25.3 ± 2.6,,,,,t1/2 (time needed for 50% hydrolysis) ([8]; pH 4.5): 104 h; t1/2 (time needed for 50% hydrolysis) ([8]; pH 7.4): 96 h
CCCCCCCC/C=C\CCCCCCCCCCCCOP(=O)(OCCC[N+](C)(C)C)OCOC(=O)OCCCCCCCCCCCC (stereo not shown) [EC12],,1,8,1.2 ± 0.2,161 ± 21,167 ± 56,252 ± 112,117 ± 15 nm,< 1,9.6 ± 2.3,,,,,
CCCCCCCC/C=C\CCCCCCCCCCCCOP(=O)(OCCC[N+](C)(C)C)OCOC(=O)OCCCCCCCC/C=C\CCCCCCCC (stereo not shown) [EC18:1],,0,10,0.8 ± 0.4,326 ± 36,154 ± 40,238 ± 58,611 ± 12 nm and 611 nm,< 1,20.9 ± 2.5,,,,,
"CCCCCCCCCCCCCCCCOP(=O)(OCC[N+](C)(C)C)OCOC(=O)CCCCCCCCCCC.[Cl-] (stereo not shown) [ME12, 2-((((Dodecanoyloxy)methoxy)(hexadecyloxy)phosphoryl)oxy)-N,N,N-trimethylethan-1-aminium chloride]",4.3 ± 2.5,,,,,,,,,,39 ± 7,52 ± 28,69 ± 26,18.0 ± 1.2,"H120 (hydrolysis rate after a 120-h incubation period) ([1]; pH 4.5): 3%; H120 (hydrolysis rate after a 120-h incubation period) ([1]; pH 7.4): 20%; Particle size of lipoplexes [6]: 178 ± 8 nm; Serum content up to which significant transgene expression was mediated ([7]; A549, N/P 3, 1 eq. DOPE, DNA dose 0.2 μg/well): up to 50 % serum; Serum content up to which transfection activity extended ([7]; A549, N/P 3, 1 eq. DOPE, DNA dose 0.4 μg/well): up to 75 % serum; HA200 (hemolytic activity at 200 μM) ([15]; 24 h): 103.2 ± 3.6%"
"CCCCCCCCCCCCCCCCOP(=O)([O-])OCC[N+](C)(C)C [Miltefosine, reference compound]",11.2 ± 2.3,,,,,,,,,,77 ± 15,70 ± 9,73 ± 8,90.8 ± 1.5,"CMC (APLs) / CAC (pro-APLs) ([2]; listed as miltefosine): 11.2 µM; CMC [16]: 12 µM; CMC ([17]; ref Rakotomanga et al., 2004): 2.5 to 3.0 µM; HC50 ([18]; depending on the hematocrit, ref Alonso and Alonso, 2016): 34 to 51 µM; HC50 ([18]; ref Petit et al., 2019): 41 µM; HC50 (concentration provoking 50% hemolysis) ([15]; 1 h): 43 µM"
"CCCCCCCCCCCCCCCCCCOP(=O)([O-])OC1CC[N+](C)(C)CC1 [Perifosine, reference compound]",4.4 ± 1.7,,,,,,,,,,127 ± 39,77 ± 3,116 ± 33,85.1 ± 4.0,"CMC (APLs) / CAC (pro-APLs) ([2]; listed as perifosine): 4.4 µM; CMC ([17]; ref Mravljak et al., 2005): 2.5 µM; Hemolysis ([18]; 24-h exposure to 5.4 μM, ref Egler and Lang, 2017): ca. 30%; HC50 (concentration provoking 50% hemolysis) ([15]; 1 h): 46 µM"
